# ChEMBL document CHEMBL1153419 (J Med Chem, 2009)
# Columns and labels:
# Homo sapiens [1] = organism: Homo sapiens; assay: Selectivity ratio of EC50 for human H1R to EC50 for human H4R
# Homo sapiens [2] = organism: Homo sapiens; assay: Selectivity ratio of EC50 for human H2R to EC50 for human H4R
# [3] = target: Histamine H2 receptor (Cavia porcellus) (UniProt P47747); assay: Agonist activity at histamine H2 receptor in guinea pig atrium assessed as maximal increase in heart rate relative to histamine; type: functional, tissue-based; conditions: Cardiac atrium
# Histamine H4 receptor [4] = target: T1, Histamine H4 receptor (Homo sapiens, UniProt Q9H3N8); assay: Intrinsic activity at human H4 receptor expressed in insect Sf9 cells co-expressing RGS19 fusion protein and Gialpha2, Gbeta1gamma2 assessed as gamma[32P]GTP binding at 10 uM by liquid scintillation counting relative to histamine
# Histamine H1 receptor [5] = target: T2, Histamine H1 receptor (Homo sapiens, UniProt P35367); assay: Intrinsic activity at human H1 receptor expressed in insect Sf9 cells co-expressing RGS4 assessed as gamma[32P]GTP binding at 10 uM by liquid scintillation counting relative to histamine
# Histamine H3 receptor [6] = target: T3, Histamine H3 receptor (Homo sapiens, UniProt Q9Y5N1); assay: Intrinsic activity at human H3 receptor expressed in insect Sf9 cells co-expressing Gialpha2, Gbeta1gamma2 and RGS4 assessed as gamma[32P]GTP binding at 10 uM by liquid scintillation counting relative to histamine
# Histamine H2 receptor [7] = target: T4, Histamine H2 receptor (Homo sapiens, UniProt P25021); assay: Intrinsic activity at human H2 receptor expressed in insect Sf9 cells co-expressing GsalphaS fusion protein assessed as gamma[32P]GTP binding at 10 uM by liquid scintillation counting relative to histamine
# Histamine H3 receptor [8] = target: T3, Histamine H3 receptor; assay: Agonist activity at human H3 receptor expressed in insect Sf9 cells co-expressing Gialpha2, Gbeta1gamma2 and RGS4 assessed as gamma[32P]GTP binding by liquid scintillation counting
# Histamine H1 receptor [9] = target: T2, Histamine H1 receptor; assay: Antagonist activity at human H1 receptor expressed in insect Sf9 cells co-expressing RGS4 assessed as inhibition of histamine-induced gamma[32P]GTP binding by liquid scintillation counting
# Histamine H2 receptor [10] = target: T5, Histamine H2 receptor (Cavia porcellus, UniProt P47747); assay: Agonist activity at histamine H2 receptor in guinea pig atrium assessed as increase in heart rate; type: functional, tissue-based, Cardiac atrium
# Histamine H4 receptor [11] = target: T1, Histamine H4 receptor; assay: Agonist activity at human H4 receptor expressed in insect Sf9 cells co-expressing RGS19 fusion protein and Gialpha2, Gbeta1gamma2 assessed as gamma[32P]GTP binding by liquid scintillation counting
# Histamine H1 receptor [12] = target: Histamine H1 receptor (Cavia porcellus, UniProt P31389); assay: Antagonist activity at histamine H1 receptor in guinea pig ileum assessed as inhibition of histamine-induced contractions; type: functional, tissue-based; conditions: read-out: pA2 (converted)
# Histamine H3 receptor [13] = target: T3, Histamine H3 receptor; assay: Antagonist activity at human H3 receptor expressed in insect Sf9 cells co-expressing Gialpha2, Gbeta1gamma2 and RGS4 assessed as inhibition of histamine-induced gamma[32P]GTP binding by liquid scintillation counting
# Histamine H2 receptor [14] = target: T4, Histamine H2 receptor; assay: Agonist activity at human H2 receptor expressed in insect Sf9 cells co-expressing GsalphaS fusion protein assessed as gamma[32P]GTP binding by liquid scintillation counting
# Histamine H1 receptor [15] = target: T2, Histamine H1 receptor; assay: Agonist activity at human H1 receptor expressed in insect Sf9 cells co-expressing RGS4 assessed as gamma[32P]GTP binding by liquid scintillation counting
# Histamine H2 receptor [16] = target: T5, Histamine H2 receptor; assay: Antagonist activity at histamine H2 receptor in guinea pig right atrium assessed as inhibition of histamine-induced increase in heart rate; type: functional, tissue-based, Cardiac atrium; conditions: read-out: pA2 (converted)
# Histamine H4 receptor [17] = target: T1, Histamine H4 receptor; assay: Antagonist activity at human H4 receptor expressed in insect Sf9 cells co-expressing RGS19 fusion protein and Gialpha2, Gbeta1gamma2 assessed as inhibition of histamine-induced gamma[32P]GTP binding by liquid scintillation counting
# Sequence of Histamine H1 receptor (Cavia porcellus, UniProt P31389) (P31389 whole entry): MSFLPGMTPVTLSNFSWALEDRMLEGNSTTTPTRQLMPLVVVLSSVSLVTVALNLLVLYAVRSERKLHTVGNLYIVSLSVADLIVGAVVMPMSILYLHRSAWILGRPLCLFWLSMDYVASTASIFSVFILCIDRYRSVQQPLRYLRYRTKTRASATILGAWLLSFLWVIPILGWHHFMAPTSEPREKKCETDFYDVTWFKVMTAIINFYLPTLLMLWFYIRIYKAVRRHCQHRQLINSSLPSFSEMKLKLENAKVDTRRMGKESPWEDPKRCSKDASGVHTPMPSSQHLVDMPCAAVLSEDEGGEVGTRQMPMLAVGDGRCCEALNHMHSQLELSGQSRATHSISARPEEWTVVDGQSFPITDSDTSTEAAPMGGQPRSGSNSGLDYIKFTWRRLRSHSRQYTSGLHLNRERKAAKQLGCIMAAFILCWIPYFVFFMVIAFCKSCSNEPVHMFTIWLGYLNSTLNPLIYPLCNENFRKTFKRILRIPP
# T4 sequence (P25021 whole entry, the tested form may be a part): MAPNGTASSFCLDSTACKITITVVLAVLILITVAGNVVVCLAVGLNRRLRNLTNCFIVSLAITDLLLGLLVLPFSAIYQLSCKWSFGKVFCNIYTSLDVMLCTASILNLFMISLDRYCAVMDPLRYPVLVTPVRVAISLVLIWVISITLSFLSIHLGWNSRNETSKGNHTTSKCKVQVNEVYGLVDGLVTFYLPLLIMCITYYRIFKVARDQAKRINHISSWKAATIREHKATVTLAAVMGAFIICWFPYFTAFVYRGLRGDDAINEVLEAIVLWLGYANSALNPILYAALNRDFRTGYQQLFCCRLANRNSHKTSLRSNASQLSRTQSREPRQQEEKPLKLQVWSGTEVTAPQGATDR
# T2 sequence (P35367 whole entry): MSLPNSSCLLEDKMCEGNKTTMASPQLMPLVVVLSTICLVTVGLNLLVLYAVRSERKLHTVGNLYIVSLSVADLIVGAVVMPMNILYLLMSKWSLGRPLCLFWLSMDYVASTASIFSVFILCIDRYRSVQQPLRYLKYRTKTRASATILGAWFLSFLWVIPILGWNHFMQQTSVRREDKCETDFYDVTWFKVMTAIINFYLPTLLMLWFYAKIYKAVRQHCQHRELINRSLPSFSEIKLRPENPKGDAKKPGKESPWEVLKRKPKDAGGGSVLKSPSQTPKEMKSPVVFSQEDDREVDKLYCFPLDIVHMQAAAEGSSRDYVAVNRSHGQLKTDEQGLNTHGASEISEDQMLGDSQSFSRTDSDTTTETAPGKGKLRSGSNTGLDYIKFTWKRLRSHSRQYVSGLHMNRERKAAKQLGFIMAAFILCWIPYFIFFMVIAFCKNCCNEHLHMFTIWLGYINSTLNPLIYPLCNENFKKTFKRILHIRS
# T3 sequence (Q9Y5N1 whole entry, the tested form may be a part): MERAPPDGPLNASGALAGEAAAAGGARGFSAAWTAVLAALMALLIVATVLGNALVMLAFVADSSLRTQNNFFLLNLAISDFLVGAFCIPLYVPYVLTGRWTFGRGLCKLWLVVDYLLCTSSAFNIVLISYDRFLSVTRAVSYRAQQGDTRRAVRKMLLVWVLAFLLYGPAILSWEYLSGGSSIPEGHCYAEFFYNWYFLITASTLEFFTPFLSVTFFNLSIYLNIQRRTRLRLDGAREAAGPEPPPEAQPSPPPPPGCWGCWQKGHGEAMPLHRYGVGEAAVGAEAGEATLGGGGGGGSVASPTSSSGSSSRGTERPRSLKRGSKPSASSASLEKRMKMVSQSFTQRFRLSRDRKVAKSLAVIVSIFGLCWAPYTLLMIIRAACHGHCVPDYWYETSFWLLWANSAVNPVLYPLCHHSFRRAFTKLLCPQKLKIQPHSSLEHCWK
# Sequence of Histamine H2 receptor (Cavia porcellus) (P47747 whole entry, the tested form may be a part): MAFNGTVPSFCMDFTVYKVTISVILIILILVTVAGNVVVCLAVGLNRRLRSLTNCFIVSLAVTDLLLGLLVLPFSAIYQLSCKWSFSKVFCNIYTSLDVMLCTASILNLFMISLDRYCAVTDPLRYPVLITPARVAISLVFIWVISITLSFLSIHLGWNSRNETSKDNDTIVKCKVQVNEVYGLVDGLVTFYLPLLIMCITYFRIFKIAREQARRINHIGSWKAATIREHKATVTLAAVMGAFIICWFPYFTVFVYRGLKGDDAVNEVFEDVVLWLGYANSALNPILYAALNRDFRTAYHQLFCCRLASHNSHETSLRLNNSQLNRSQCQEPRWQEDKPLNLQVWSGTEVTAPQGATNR
# T5 sequence (P47747 whole entry, the tested form may be a part): as above
# T1 sequence (Q9H3N8 whole entry, the tested form may be a part): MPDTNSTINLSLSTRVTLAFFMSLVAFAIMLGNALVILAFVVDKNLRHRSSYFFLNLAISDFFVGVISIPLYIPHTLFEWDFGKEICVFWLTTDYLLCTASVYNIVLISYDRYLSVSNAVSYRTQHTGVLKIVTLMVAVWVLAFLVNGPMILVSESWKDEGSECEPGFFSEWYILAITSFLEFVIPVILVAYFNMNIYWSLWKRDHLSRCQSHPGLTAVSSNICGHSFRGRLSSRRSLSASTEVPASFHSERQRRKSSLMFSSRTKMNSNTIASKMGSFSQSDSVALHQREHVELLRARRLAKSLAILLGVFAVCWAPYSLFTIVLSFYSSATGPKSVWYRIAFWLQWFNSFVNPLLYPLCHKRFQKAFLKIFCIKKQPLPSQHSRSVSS
SMILES,Selectivity ratio (Homo sapiens [1]),Selectivity ratio (Homo sapiens [2]),Activity [3],Activity (Histamine H4 receptor [4]),Activity (Histamine H1 receptor [5]),Activity (Histamine H3 receptor [6]),Activity (Histamine H2 receptor [7]),EC50 (Histamine H3 receptor [8]),pKb (Histamine H1 receptor [9]),EC50 (Histamine H2 receptor [10]),EC50 (Histamine H4 receptor [11]),Kb (Histamine H1 receptor [12]),pKb (Histamine H3 receptor [13]),EC50 (Histamine H2 receptor [14]),EC50 (Histamine H1 receptor [15]),Kb (Histamine H2 receptor [16]),pKb (Histamine H4 receptor [17])
CC(=O)/N=C(\N)NCCCc1c[nH]cn1,> 1000,> 100,0.83,1,0.24,0.27,0.76,,,,,,,,,,
CC(CC(=O)NC(N)=NCCCc1cnc[nH]1)c1ccccc1 (stereo not drawn),,,,,,,,2.51 nM,,,,,,,,,
N/C(=N\C(=O)Cc1c[nH]c2ccccc12)NCCCc1c[nH]cn1,,,0.91,0.7,0,-0.15,0.81,,5.68,182 nM,19.1 nM,38.9 nM,7.51,36.3 nM,,,
CC(CC(=O)/N=C(\N)NCCCc1c[nH]cn1)c1ccccc1 (stereo not drawn),,,0.99,0.84,0.35,0.24,0.87,,< 4.9,,,,,,,,
CCCC(=O)/N=C(\N)NCCCc1c[nH]cn1,,,0.97,0.96,0.33,0.37,0.77,1.58 nM,,186 nM,2.57 nM,3550 nM,,141 nM,2190 nM,407 nM,
N/C(=N\C(=O)CCCNC(=O)c1cc2ccccc2[nH]1)NCCCc1c[nH]cn1,,,0.9,-0.06,0.16,-0.18,0.51,,4.96,490 nM,,741 nM,7.17,30.2 nM,,,7.02
S=C(NC1CCCCC1)N1CCC(c2cnc[nH]2)CC1,,,,-0.95,,-0.71,,,,,,,,,,,
CC(=O)NC(N)=NCCCc1cnc[nH]1,,,,,,,,3.63 nM,,813 nM,4.9 nM,8510 nM,,724 nM,12900 nM,363 nM,
N/C(=N\C(=O)CCc1c[nH]c2ccccc12)NCCCc1c[nH]cn1,,,1.01,0.45,0.09,-0.18,0.77,,5.4,77.6 nM,7.08 nM,398 nM,7.57,81.3 nM,,437 nM,
CN(CCC(=O)/N=C(\N)NCCCc1c[nH]cn1)C(=O)c1cc2ccccc2[nH]1,,,0.84,0.52,,0.3,0.68,11 nM,,3550 nM,151 nM,3020 nM,,347 nM,,,
N=C(N)NCCCc1c[nH]cn1,,,,0.83,,0.69,0.66,,< 5,,,,,,,,
N/C(=N\C(=O)c1cc2ccccc2[nH]1)NCCCc1c[nH]cn1,,,,0.21,0.42,-0.38,0.87,,,,,,6.96,288 nM,1700 nM,,6.43
CCC(=O)/N=C(\N)NCCCc1c[nH]cn1,,,0.94,,0.3,0.39,0.83,1.58 nM,,,,5130 nM,,372 nM,3470 nM,347 nM,
CC(C)C(=O)/N=C(\N)NCCCc1c[nH]cn1,,,0.98,0.94,0.35,0.26,0.86,1.41 nM,,110 nM,3.72 nM,7760 nM,,110 nM,2570 nM,302 nM,
N/C(=N\C(=O)CCNC(=O)c1cc2ccccc2[nH]1)NCCCc1c[nH]cn1,,,,0.37,,0.1,0.33,,,,33.1 nM,,7.17,83.2 nM,,,
N/C(=N\C(=O)CNC(=O)c1cc2ccccc2[nH]1)NCCCc1c[nH]cn1,,,,0.71,,0.45,0.51,15.8 nM,,,28.2 nM,,,955 nM,,,
